One block for each compound: values may come before it.
What was measured:
[1] = tested on: cervical cancer (HeLa) cells; assay: MTT dose response cytotoxicity, HeLa; assay type: cell-based; conditions: Homo sapiens, 48 h
Protocol: (§1) Cells were seeded as described in above. […] The medium was aspirated and replaced with 200 μL fresh medium containing the dilution of the respective test compound. The test sample were added to each well and the plates were incubated for a further 48 h at 37 °C under 5% CO2 atmosphere in a humidified incubator. After this incubation period, the medium was removed and then replaced with 100 μL fresh culture medium containing MTT at a final concentration of 0.5 mg/mL. The 96-well plates were returned to the incubator and incubated for an additional 3 h. The medium was removed and the MTT crystals were solubilized in 100 μL DMSO and the absorbance was measured at 560 nm using a Labsystems Multiwell Scanning spectrophotometer (Thermo Fischer Scientific, Edenvale, South Africa).
(§2) Quantification of live and dead cells for the screening assay was performed using the ImageXpress Micro XLS Widefield Microscope and acquired images analysed using the MetaXpress software and Multi-Wavelength Cell Scoring Application Module. Acquired data was transferred to an EXCEL spreadsheet and relative cell viability was determined using quadruplicate wells for each concentration. Untreated cells were considered to have 100% cell viability (i.e., the mean OD of the untreated wells = 100% viability). Cell viabilities in other test wells were calculated relative to the untreated control and expressed as a percentage. Dose response analysis was performed using the statistical software GraphPad Prism and IC50 values calculated from the concentration-response data using a mathematical Hill function.

lung cancer (A549) cells = assay: MTT dose response cytotoxicity, A549; assay type: cell-based; conditions: Homo sapiens, 48 h
Protocol: as §1, §2

A549 cancer cells = assay: Two-concentration cytotoxicity screen (Hoechst 33342/PI imaging), A549; assay type: cell-based; conditions: 10 μM and 100 μM, 48 h
Protocol: (§3) The HeLa and A549 cancer cells were initially exposed to two concentrations of each test compound (10 μM and 100 μM) for 48 h with a well-known chemotherapeutic drug, Melphalan, used as a reference standard at the same concentrations (Table 2 and Table 3). Acquisition was performed using the ImageXpress Micro XLS Widefield Microscope and the acquired images were analyzed using the MetaXpress software and Multi-Wavelength Cell Scoring Application Module (see Figure S2 in the Supplementary Information for cell viability percentages for each compound). The structure activity relationship (SAR) of these compounds has been evaluated with respect to the substitution patterns on the 2-phenyl ring, C-3 and C-7 positions.
(§4) The human cervical cancer cell line, HeLa, and lung cancer cell line, A549 were used for the screening assay. HeLa cells were grown and maintained in RPMI 1640 medium supplemented with 10% fetal bovine serum (FBS) and A549 cells were grown and maintained in EMEM supplemented with 10% FBS and 10% non-essential amino acids. In the case of screening experiments, the cells were seeded into 96 well microtiter plates at a density of 6000 cells/well to a total volume of 200 μL per well. The microtiter plates were incubated at 37 °C, 5% CO2, and 100% relative humidity for 24 h to allow for cell attachment. Each of the test compounds was first reconstituted in DMSO at a concentration of 40 mM and then stored at 4 °C prior to use and final dilution to working concentrations with culture complete medium on the day of treatment. Two hundred microliters aliquots of the diluted compound in fresh medium was used to treat cells after aspiration of seeding medium. Each of the cell lines was incubated for 48 h at 37 °C in a humidified incubator under 5% CO2 atmosphere. Treatment medium was aspirated from all wells and replaced with 100 μL of Hoechst 33342 nuclear dye (5 μg/mL) and incubated for 10 min at room temperature. Thereafter, cells were stained with propidium iodide (PI) at 100 μg/mL in order to enumerate the proportion of dead cells within the population. […]
as §2, with “Untreated cells were considered to have 100% cell viability (i.e., the mean OD of the untreated wells = 100% viability).” left out

HeLa cancer cells = assay: Two-concentration cytotoxicity screen (Hoechst 33342/PI imaging), HeLa; assay type: cell-based; conditions: 10 μM and 100 μM, 48 h
Protocol: as §3, §4
as §2, with “Untreated cells were considered to have 100% cell viability (i.e., the mean OD of the untreated wells = 100% viability).” left out

A549 cells = assay: Caspase 8 and 3 activation (immunochemical), A549; assay type: cell-based, human; conditions: 24 h exposure at IC50 values
Protocol: (§5) Several distinctive mechanisms of cancer cell death such as apoptosis, necrosis, autophagy and cornification have been identified, and these are characterized by differences in morphology and biochemical changes. A major biochemical feature of apoptosis is the activation of caspases, which plays a central role in the morphological changes associated with apoptosis. Caspase activation was determined using immunochemical methods and the antibodies against activated caspase 8 and caspase 3. […] Activated caspase 8 can be used as a convenient indicator of involvement of the extrinsic death receptor pathway of apoptosis. Executioner caspases including caspase 3 are, in turn, activated by the initiator caspases. This protein is either partially or totally responsible for the cleavage of many key proteins such as PARP, DNA protein kinases and retinoblastoma protein [25]. […] This was true for both activated caspase 8 and 3. A more distinct increase was evident with caspase 3 albeit less pronounced than that of 4c and the increase was expected as caspase 3 is activated by initiator caspase including caspase 8, which is a later event in apoptosis. […] Prolonged treatment of the cells with compounds 5e–h for 48 h or more, for example, would probably result in significant effects. We also evaluated compound 5g for potential to induce other key apoptotic biochemical features such as phosphatidylserine (PS) translocation, cell cycle arrest and mitochondrial membrane depolarization.
(§6) Compounds 4c and 5g were selected for mechanism studies and these test compounds were reconstituted in dimethyl sulphoxide (DMSO) to give a final concentration of 40 mM. Samples were stored at 4 °C until required. […]
(§7) Quantification of live and dead cells for the assay was performed using the ImageXpress Micro XLS Widefield Microscope and acquired images analysed using the MetaXpress software and Multi-Wavelength Cell Scoring Application Module and the Cell Cycle Module. Acquired data was transferred to an EXCEL spreadsheet and data was analysed and processed.

HeLa cells = assay: Caspase 8 and 3 activation (immunochemical), HeLa; assay type: cell-based, human; conditions: 24 h exposure at IC50 values
Protocol: as §5, §6, §7

[2] = tested on: neurotesin receptor type 2 (NTS2); set-up: method as in PMID 25157640; conditions: cited from earlier work

Compound: CC(=O)c1cc(Br)cc2cc(-c3ccccc3)[nH]c12 [Compound 2a, 1-(5-Bromo-2-phenyl-1H-indol-7-yl)ethanone]
- IC50 [1]: > 200 µM
- IC50 (lung cancer (A549) cells): > 200 µM
- melting point: 139 to 142 °C

Compound: CC(=O)c1cc(Br)cc2cc(-c3ccc(F)cc3)[nH]c12 [Compound 2b, 1-[5-Bromo-2-(4-fluorophenyl)-1H-indol-7-yl]ethanone]
- IC50 [1]: > 200 µM
- IC50 (lung cancer (A549) cells): > 200 µM
- melting point: 171 to 173 °C

Compound: CC(=O)c1cc(Br)cc2cc(-c3cccc(Cl)c3)[nH]c12 [Compound 2c, 1-[5-Bromo-2-(3-chlorophenyl)-1H-indol-7-yl]ethanone]
- IC50 [1]: > 200 µM
- IC50 (lung cancer (A549) cells): > 200 µM
- melting point: 140 to 143 °C

Compound: COc1ccc(-c2cc3cc(Br)cc(C(C)=O)c3[nH]2)cc1 [Compound 2d, 1-[5-Bromo-2-(4-methoxyphenyl)-1H-indol-7-yl]ethanone]
- IC50 [1]: > 200 µM
- IC50 (lung cancer (A549) cells): > 200 µM
- melting point: 140 to 142 °C

Compound: CC(=O)Nc1cc(Br)cc2cc(-c3ccccc3)[nH]c12 [Compound 4a, N-(5-Bromo-2-phenyl-1H-indol-7-yl)acetamide]
- Cytotoxicity (percentage live cells compared to untreated control) (A549 cancer cells): Lack of cytotoxicity
- IC50 [1]: > 200 µM
- Cytotoxicity (percentage live cells compared to untreated control) (HeLa cancer cells): Lack of cytotoxicity
- IC50 (lung cancer (A549) cells): > 200 µM

Compound: CC(=O)Nc1cc(Br)cc2cc(-c3ccc(F)cc3)[nH]c12 [Compound 4b, N-[5-Bromo-2-(4-fluorophenyl)-1H-indol-7-yl]acetamide]
- Cytotoxicity (percentage live cells compared to untreated control) (A549 cancer cells): modest cytotoxicity
- IC50 [1]: 122.4 ± 1.02 µM
- Cytotoxicity (percentage live cells compared to untreated control) (HeLa cancer cells): modest cytotoxicity
- IC50 (lung cancer (A549) cells): 116.2 ± 0.78 µM

Compound: CC(=O)Nc1cc(Br)cc2cc(-c3cccc(Cl)c3)[nH]c12 [Compound 4c, N-(5-Bromo-2-(3-chlorophenyl)-1H-indol-7-yl)acetamide]
- Cytotoxicity (percentage live cells compared to untreated control) (A549 cancer cells): modest cytotoxicity
- IC50 [1]: 126.9 ± 1 µM
- Cytotoxicity (percentage live cells compared to untreated control) (HeLa cancer cells): modest cytotoxicity
- Caspase 8 and 3 activation (% change in mean integrated fluorescence intensity of the untreated control) (A549 cells): clear increases
- IC50 (lung cancer (A549) cells): 154.6 ± 0.9 µM
- Caspase 8 and 3 activation (% change in mean integrated fluorescence intensity of the untreated control) (HeLa cells): clear increases

Compound: COc1ccc(-c2cc3cc(Br)cc(NC(C)=O)c3[nH]2)cc1 [Compound 4d, N-[5-Bromo-2-(4-methoxyphenyl)-1H-indol-7-yl]acetamide]
- Cytotoxicity (percentage live cells compared to untreated control) (A549 cancer cells): modest cytotoxicity
- IC50 [1]: 125 ± 0.88 µM
- Cytotoxicity (percentage live cells compared to untreated control) (HeLa cancer cells): modest cytotoxicity
- IC50 (lung cancer (A549) cells): 146.8 ± 1 µM

Compound: N[C@@H](Cc1ccc(N(CCCl)CCCl)cc1)C(=O)O [Melphalan, reference compound]
- IC50 [1]: 37.16 ± 0.22 µM
- Caspase 8 and 3 activation (% change in mean integrated fluorescence intensity of the untreated control) (A549 cells): clear increases
- IC50 (lung cancer (A549) cells): 30.7 ± 0.76 µM
- Caspase 8 and 3 activation (% change in mean integrated fluorescence intensity of the untreated control) (HeLa cells): clear increases

Compound: Cc1ccc(S(=O)(=O)Nc2ccc3c(c2)c(C(=O)C(F)(F)F)cn3CC(=O)N[C@@H](CC(C)C)C(=O)O)cc1 [NTRC-824, N-[(5-{[(4-methylphenyl)sulfonyl]amino}-3-(trifluoroacetyl)-1H-indol-1-yl)acetyl]-L-leucine]
- fold more active than the expected C-3 unsubstituted analogue ([2]; NTS2): 90 fold
- IC50 [2]: 0.038 µM

Further lines, with some results ahead:

- melting point: 175 to 176 °C
Compound: CC(=O)c1cc(Br)cc2c(C(=O)C(F)(F)F)c(-c3ccccc3)[nH]c12 [Compound 5a, 1-(7-Acetyl-5-bromo-2-phenyl-1H-indol-3-yl)-2,2,2-trifluoroethanone]
- IC50 [1]: > 200 µM
- IC50 (lung cancer (A549) cells): > 200 µM

- melting point: 168 to 171 °C
Compound: CC(=O)c1cc(Br)cc2c(C(=O)C(F)(F)F)c(-c3ccc(F)cc3)[nH]c12 [Compound 5b, 1-[7-Acetyl-5-bromo-2-(4-fluorophenyl)-1H-indol-3-yl]-2,2,2-trifluoroethanone]
- IC50 [1]: > 200 µM
- IC50 (lung cancer (A549) cells): > 200 µM

- melting point: 138 to 141 °C
Compound: CC(=O)c1cc(Br)cc2c(C(=O)C(F)(F)F)c(-c3cccc(Cl)c3)[nH]c12 [Compound 5c, 1-[7-Acetyl-5-bromo-2-(3-chlorophenyl)-1H-indol-3-yl]-2,2,2-trifluoroethanone]
- IC50 [1]: > 200 µM
- IC50 (lung cancer (A549) cells): > 200 µM

- melting point: 170 to 173 °C
Compound: COc1ccc(-c2[nH]c3c(C(C)=O)cc(Br)cc3c2C(=O)C(F)(F)F)cc1 [Compound 5d, 1-[7-Acetyl-5-bromo-2-(4-methoxyphenyl)-1H-indol-3-yl]-2,2,2-trifluoroethanone]
- IC50 [1]: > 200 µM
- IC50 (lung cancer (A549) cells): > 200 µM

- melting point: 141 to 144 °C
Compound: CC(=O)Nc1cc(Br)cc2c(C(=O)C(F)(F)F)c(-c3ccccc3)[nH]c12 [Compound 5e, N-[5-Bromo-2-phenyl-3-trifluoroacetyl-1H-indol-7-yl]acetamide]
- IC50 [1]: 12.9 ± 1.11 µM
- IC50 (lung cancer (A549) cells): 9.94 ± 0.99 µM

- melting point: 195 to 197 °C
Compound: CC(=O)Nc1cc(Br)cc2c(C(=O)C(F)(F)F)c(-c3ccc(F)cc3)[nH]c12 [Compound 5f, N-[5-Bromo-2-(4-fluorophenyl)-3-trifluoroacetyl-1H-indol-7-yl]acetamide]
- IC50 [1]: 7.95 ± 0.9 µM
- IC50 (lung cancer (A549) cells): 5.03 ± 0.71 µM

- melting point: 179 to 182 °C
Compound: COc1ccc(-c2[nH]c3c(NC(C)=O)cc(Br)cc3c2C(=O)C(F)(F)F)cc1 [Compound 5h, N-[5-Bromo-2-(4-methoxyphenyl)-3-trifluoroacetyl-1H-indol-7-yl]acetamide]
- IC50 [1]: 10.7 ± 1.03 µM
- IC50 (lung cancer (A549) cells): 3.26 ± 0.51 µM

Source: article PMC6027433, “Synthesis, Evaluation of Cytotoxicity and Molecular Docking Studies of the 7-Acetamido Substituted 2-Aryl-5-bromo-3-trifluoroacetylindoles as Potential Inhibitors of Tubulin Polymerization” (Pharmaceuticals, 2018)
